Values of other authors, collected in patent publication US20090081697A1, “Methods of growing crystals of free and antibiotic complexed large ribosomal subunits, and methods of rationally designing or identifying antibiotics using structure coordinate data derived from such crystals” (Yeda Research and Development Co. Ltd., priority 2001, published 2009).

Experiments:
[1] = target: ribosomes; conditions: compared with erythromycin; Hansen et al. 1999
[2] = relative to erythromycin
[3] = test system: ribosomes; conditions: Tenson et al. 1996

SMILES | acid stability [2] | also measured
CC[C@H]1OC(=O)[C@H](C)C(=O)[C@H](C)[C@@H](O[C@@H]2O[C@H](C)C[C@H](N(C)C)[C@H]2O)[C@](C)(OC)C[C@@H](C)C(=O)[C@H](C)[C@@H](O)[C@]1(C)O [RU56006] | – | Kd [1]: of the same order of magnitude as that of erythromycin
CC[C@H]1OC(=O)[C@H](C)[C@@H](O[C@H]2C[C@@](C)(OC)[C@@H](O)[C@H](C)O2)[C@H](C)[C@@H](O[C@@H]2O[C@H](C)C[C@H](N(C)C)[C@H]2O)[C@](C)(OC)C[C@@H](C)C(=O)[C@H](C)[C@@H](O)[C@]1(C)O [clarithromycin] | increased acid stability relative to erythromycin | –
CC[C@H]1OC(=O)[C@H](C)[C@@H](O[C@H]2C[C@@](C)(OC)[C@@H](O)[C@H](C)O2)[C@H](C)[C@@H](O[C@@H]2O[C@H](C)C[C@H](N(C)C)[C@H]2O)[C@](C)(O)C[C@@H](C)C(=O)[C@H](C)[C@@H](O)[C@]1(C)O [erythromycin] | – | length of peptides produced by erythromycin-bound ribosomes [3]: up to 8 residues
CC[C@H]1OC(=O)[C@H](C)[C@@H](O[C@H]2C[C@@](C)(OC)[C@@H](O)[C@H](C)O2)[C@H](C)[C@@H](O[C@@H]2O[C@H](C)C[C@H](N(C)C)[C@H]2O)[C@](C)(O)C[C@@H](C)/C(=N\OCOCCOC)[C@H](C)[C@@H](O)[C@]1(C)O [roxithromycin] | increased acid stability relative to erythromycin | –
